Measured values reported in ChEMBL document CHEMBL1131667, “4-Phenylthiazole derivatives inhibit IL-6 secretion in osteoblastic cells and suppress bone weight loss in ovariectomized mice” (Bioorg Med Chem Lett, 1999).
Values after ≈ are worked out from the molar mass of the structure shown.

How the values were obtained:
[1] = Inhibition the IL-6 secretion stimulated at a concentration of 10 ng/ml in osteoblastic MC3T3-E 1 cells.; format: functional; settings: Mus musculus, MC3T3-E1
Mus musculus [2] = assay: Effect on femoral weight loss in ovariectomized mice at a dose of 0.4 mg/kg/day, ip; format: functional, organism-based
Mus musculus [3] = assay: Effect on femoral weight loss in ovariectomized mice at a dose of 2.0mg/kg/day, ip; format: functional, organism-based

| SMILES | IC50 [1] [µg/mL] | Recovery (Mus musculus [2]) [%] | Recovery (Mus musculus [3]) [%] |
| --- | --- | --- | --- |
| CCOC(=O)c1sc(-c2ccncc2)nc1-c1ccccc1 | 90 (≈ 290 µM) |  |  |
| Cc1sc(N)nc1-c1ccc(Cl)cc1 | 10 (≈ 44.5 µM) | 22.8 | 57.8 |
| Nc1nc(-c2ccccc2)c(C(=O)O)s1 | > 100 |  |  |
| CCOC(=O)c1scnc1-c1ccccc1 | 30 (≈ 129 µM) |  |  |
| Cc1sc(N)nc1-c1cccc(Cl)c1 | 2.5 (≈ 11.1 µM) |  |  |
| CCOC(=O)c1sc(C)nc1-c1ccccc1 | 40 (≈ 162 µM) |  |  |
| CCOC(=O)c1sc(NC)nc1-c1ccccc1 | 40 (≈ 152 µM) |  |  |
| CCOC(=O)c1sc(NC=O)nc1-c1ccccc1 | > 100 |  |  |
| Cc1ccc(-c2nc(N)sc2C)cc1 | 24 (≈ 117 µM) |  |  |
| CCOC(=O)c1sc(N)nc1-c1ccc(Cl)cc1 | 6 (≈ 21.2 µM) |  |  |
| Cc1sc(N)nc1-c1ccc(Cl)c(Cl)c1 | 35 (≈ 135 µM) |  |  |
| CCc1sc(N)nc1-c1ccccc1 | > 100 |  |  |
| Cc1sc(N)nc1-c1ccc(Cl)cc1Cl | 8 (≈ 30.9 µM) |  |  |
| Nc1nc(-c2ccccc2)cs1 | 60 (≈ 340 µM) |  |  |
| Cc1sc(N)nc1-c1ccccc1Cl | 50 (≈ 223 µM) |  |  |
| Cc1sc(N)nc1-c1ccc(O)cc1 | 1 (≈ 4.85 µM) | 13.9 | 35.5 |
| Cc1sc(N)nc1-c1ccc(-c2ccccc2)cc1 | 39 (≈ 146 µM) |  |  |
| CCOC(=O)c1sc(N)nc1-c1ccccc1 | 6 (≈ 24.2 µM) |  |  |
| Cc1sc(N)nc1-c1ccccc1 | 10 (≈ 52.6 µM) |  |  |
| COc1ccc(-c2nc(N)sc2C)cc1 | 7 (≈ 31.8 µM) |  |  |
| CCCNC(=O)c1sc(N)nc1-c1ccccc1 | 40 (≈ 153 µM) |  |  |
| Nc1nc(-c2ccc(Cl)cc2)c(C(=O)O)s1 | 20 (≈ 78.5 µM) | 7.1 | 8.6 |
| CNc1sc(N)nc1-c1ccccc1 | 40 (≈ 195 µM) |  |  |
| Cc1sc(N)nc1-c1ccc(F)cc1 | 27 (≈ 130 µM) |  |  |
| Cc1sc(N)nc1-c1ccc(C(F)(F)F)cc1 | 3 (≈ 11.6 µM) |  |  |
